Usually IC50 stands for the midpoint of a concentration-inhibition curve.

Structures are written as SMILES. Read-outs that look alike come from different tables or passages of the source.

Assay [1] concerns the target PI3Kγ (Homo sapiens, UniProt P48736). The assay can be described thus: ADP-Glo cell-free PI3K kinase activity assay. As to conditions: compounds 10 μM, initial screening, Fig. 3A. A general note: In ADP-Glo the light output rises with the ADP produced.
Protocol: (§6) The PI3K inhibitory activities of these pro-hits were all determined by ADP-Glo assay (Promega) [39]. […] 2.5 μL ATP/substrate mixture was added into the wells to initiate kinase reactions and incubated at room temperature for 1 h. Then, the reactions were stopped by addition of 5 μL ADP-Glo reagent and incubation for 120 min at room temperature. Before reading the luminescence signals of each well, 10 μL kinase detection buffer was added and incubated for 30 min at room temperature.
Assay [2] concerns K562 cells. The assay can be described thus: Annexin V-FITC/PI flow cytometry apoptosis assay. It is filed as cell-based, human. The settings on record: 24 h. On the procedure:
(§1) After being treated with JN-KI3 for 24 h, K562 and RPMI-8226 were stained with Annexin V-FITC/PI detection kit (Beyotime) and the apoptosis of the cells were detected using a flow cytometer (FACSCalibur, BD) following the instructions.
A general note: In flow cytometry, cells or beads pass a laser one at a time.

For assay [3], the system named is RPMI-8226 cells. The assay is described as follows: Annexin V-FITC/PI flow cytometry apoptosis assay. The assay is classed as cell-based, human. As to conditions: RPMI-8226, 10 μM, 24 h. Here is the method: as §1
Assay [4] deals with PI3Kα (Homo sapiens, UniProt P42336). The assay is described as follows: ADP-Glo cell-free PI3K kinase activity assay.
Chain of PI3Kα (P42336 whole entry): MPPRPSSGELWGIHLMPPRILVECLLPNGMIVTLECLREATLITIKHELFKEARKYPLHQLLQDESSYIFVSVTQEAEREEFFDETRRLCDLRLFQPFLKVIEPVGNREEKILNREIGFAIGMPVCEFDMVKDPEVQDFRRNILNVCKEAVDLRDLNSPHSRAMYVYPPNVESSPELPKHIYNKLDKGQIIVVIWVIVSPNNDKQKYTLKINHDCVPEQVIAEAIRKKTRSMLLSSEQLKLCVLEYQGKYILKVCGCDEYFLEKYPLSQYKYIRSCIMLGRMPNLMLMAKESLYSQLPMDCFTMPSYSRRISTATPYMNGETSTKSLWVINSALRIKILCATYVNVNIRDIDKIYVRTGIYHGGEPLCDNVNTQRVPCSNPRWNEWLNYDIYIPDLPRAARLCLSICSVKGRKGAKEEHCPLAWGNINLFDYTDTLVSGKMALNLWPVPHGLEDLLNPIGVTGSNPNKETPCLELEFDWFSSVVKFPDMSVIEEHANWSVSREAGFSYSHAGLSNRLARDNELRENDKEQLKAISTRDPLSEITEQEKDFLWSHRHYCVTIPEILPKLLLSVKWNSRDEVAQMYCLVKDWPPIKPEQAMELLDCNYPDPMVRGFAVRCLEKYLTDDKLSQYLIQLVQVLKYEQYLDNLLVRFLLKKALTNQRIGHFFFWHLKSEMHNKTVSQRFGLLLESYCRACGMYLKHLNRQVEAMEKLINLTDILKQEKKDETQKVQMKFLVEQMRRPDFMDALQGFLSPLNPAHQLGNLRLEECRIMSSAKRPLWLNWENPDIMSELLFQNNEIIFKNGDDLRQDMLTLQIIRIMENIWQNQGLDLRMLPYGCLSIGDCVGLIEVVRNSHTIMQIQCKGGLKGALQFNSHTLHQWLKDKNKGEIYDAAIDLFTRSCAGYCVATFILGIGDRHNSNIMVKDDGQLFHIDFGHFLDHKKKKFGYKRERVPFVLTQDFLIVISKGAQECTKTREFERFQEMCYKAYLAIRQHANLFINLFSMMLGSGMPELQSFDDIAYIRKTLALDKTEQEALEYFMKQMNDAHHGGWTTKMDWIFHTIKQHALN
Chain of PI3Kα (P27986 whole entry partner): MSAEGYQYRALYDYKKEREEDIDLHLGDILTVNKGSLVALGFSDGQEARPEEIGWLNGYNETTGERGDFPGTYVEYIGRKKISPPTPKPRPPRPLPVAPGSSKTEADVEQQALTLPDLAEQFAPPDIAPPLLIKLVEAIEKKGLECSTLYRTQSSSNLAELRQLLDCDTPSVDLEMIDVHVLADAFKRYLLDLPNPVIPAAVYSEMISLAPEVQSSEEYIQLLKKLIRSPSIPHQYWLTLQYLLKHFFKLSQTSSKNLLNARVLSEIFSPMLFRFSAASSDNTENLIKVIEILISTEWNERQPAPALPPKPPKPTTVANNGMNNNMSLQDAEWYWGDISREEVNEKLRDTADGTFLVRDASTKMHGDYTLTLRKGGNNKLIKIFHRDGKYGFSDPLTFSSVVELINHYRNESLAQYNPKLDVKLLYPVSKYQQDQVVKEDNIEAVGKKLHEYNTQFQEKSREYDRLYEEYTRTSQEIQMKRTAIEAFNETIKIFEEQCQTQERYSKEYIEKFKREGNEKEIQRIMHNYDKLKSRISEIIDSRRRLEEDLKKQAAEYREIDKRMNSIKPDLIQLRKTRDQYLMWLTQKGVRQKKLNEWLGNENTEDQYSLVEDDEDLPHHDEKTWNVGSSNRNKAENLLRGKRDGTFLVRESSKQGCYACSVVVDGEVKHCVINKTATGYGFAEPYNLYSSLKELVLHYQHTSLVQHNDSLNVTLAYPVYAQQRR
Protocol: as §6
Assay [5] deals with hematologic tumor cell lines (HL-60, Jurkat, CCRF-CEM, K562, OPM2, OCI-My5, LP-1, RPMI-8226, U937). The assay is described as follows: MTT cell proliferation assay, hematologic tumor cell lines, gradient of concentrations. It is filed as cell-based, human. As to conditions: Fig. 3D. From the text: (§2) The human cancer lines, MDA-MB-231, Patu8988, HepG2, A2780, LOVO, H1299, A549, HCT-8, SW480, 3AO, and MGC-803 were saved by the lab of Dr. Jian Jin, Jiangnan University. MCF-7 was purchased from the American Type Culture Collection (ATCC). Human malignant blood tumor cells, HL-60, U266, OPM2, OCI-My5, RPMI-8226, NCI-H929, Jurkat, LP-1, CCRF-CEM, K562, and U937, were provided by Dr. Xinliang Mao, Soochow University. MDA-MB-231, Patu8988, HepG2, A2780, LOVO, H1299, A549, HCT-8, SW480, 3AO, MGC-803, and MCF-7 were cultured in Dulbecco’s Modified Eagle Medium (DMEM, Gibco); U266, RPMI-8226, OPM2, OCI-My5, NCI-H929 and LP-1 were cultured in Iscove’s Modified Dulbecco’s Medium (IMDM. Gibco). The rest of cell lines were cultured in RPMI-1640 medium (Gibco). All mediums were supplemented with 10% fetal bovine serum (FBS, Gibco), 100 μg/mL penicillin and streptomycin, and all cells were maintained in a cell incubator with 5% CO2 at 37℃.
All cells were incubated in 96-well culture plates with 100 μL medium in each well. […] The viability of the cancer cells was evaluated by Thiazolyl Blue (MTT) assay. […] After incubating the plate overnight, the absorbance of each well was measured at 550 nm by a microplate reader. […]
In general terms: Tetrazolium dyes change colour on reduction, which living cells bring about.

Assay [6] has as its target PI3Kδ (Homo sapiens, UniProt O00329). The assay can be described thus: ADP-Glo cell-free PI3K kinase activity assay.
Protocol: as §6
Assay [7] deals with PARP and caspase-3 cleavage in K562 cells. The assay is described as follows: Western Blot of apoptosis biomarkers. It is filed as cell-based, human. Here is the method: (§3) K562 and RPMI-8226 cells were cultured in 6-well plates with 1 × 10^6 cells per well and then treated with various concentrations of JN-KI3: 0, 2.5, 5, 10, and 20 μM. After 24 h, the cells of each well were collected and washed by PBS 3 times. The sedimentary cells were then incubated in an ice bath with 80 μL RIPA lysis buffer (Beyotime) for 20 min and then centrifuged at 12,000 rpm for 20 min. The supernatant was collected and its total concentration of protein was quantified using the BCA protein assay kit (Biosharp). Loading buffer (5 ×) was added to all protein samples prepared for Western Blot assays and boiled at 100℃ for 5 min.
(§4) The inhibitory situation of PI3K/AKT (Protein kinase B) signaling pathway was then determined by Western Blot assays. The SDS-polyacrylamide gel electrophoresis (PAGE) was used to separate the proteins. All protein samples and Protein Marker (Proteintech) were loaded onto an acrylamide gel and ran for 30 min at 80 V within the staking gel and for 1 h at 100 V with the separating gel. Then, the protein was electro-transferred onto an NC membrane at 100 V for 1 h. After that, the membrane was blocked in 5% skim milk diluted in TBST (1 ×) for 2 h and then the membrane was incubated with relevant primary antibody overnight at 4℃: Phospho-AKT (Thr308) (1 : 1000, cat# 13038 T; Cell Signaling Technology), Phospho-AKT (Ser473) (1: 1000, cat# 4060 T; Cell Signaling Technology), AKT (pan) (1: 1000, cat# 4691 T; Cell Signaling Technology), caspase-3 (1: 1000, cat# sc-56053; Santa Cruz Biotechnology), PARP (1: 1000, cat# 9542S; Cell Signaling Technology). GAPDH (1: 5000, cat#60004–1-Ig; Santa Cruz Biotechnology), After 10-min washing in TBST (1 ×) for 3 times, the membrane was incubated with relevant secondary antibody at room temperature on a shaker for 1 h. And the membrane was washed for 4 times in TBST again before being imaged.

Assay [8] concerns PARP and caspase-3 cleavage in RPMI-8226 cells. The assay is described as follows: Western Blot of apoptosis biomarkers. The assay is classed as cell-based, human. On the procedure: as §3, §4
The target of assay [9] is PI3Kβ (Homo sapiens, UniProt P42338). The assay can be described thus: ADP-Glo cell-free PI3K kinase activity assay.
Chain of PI3Kβ (P42338 whole entry): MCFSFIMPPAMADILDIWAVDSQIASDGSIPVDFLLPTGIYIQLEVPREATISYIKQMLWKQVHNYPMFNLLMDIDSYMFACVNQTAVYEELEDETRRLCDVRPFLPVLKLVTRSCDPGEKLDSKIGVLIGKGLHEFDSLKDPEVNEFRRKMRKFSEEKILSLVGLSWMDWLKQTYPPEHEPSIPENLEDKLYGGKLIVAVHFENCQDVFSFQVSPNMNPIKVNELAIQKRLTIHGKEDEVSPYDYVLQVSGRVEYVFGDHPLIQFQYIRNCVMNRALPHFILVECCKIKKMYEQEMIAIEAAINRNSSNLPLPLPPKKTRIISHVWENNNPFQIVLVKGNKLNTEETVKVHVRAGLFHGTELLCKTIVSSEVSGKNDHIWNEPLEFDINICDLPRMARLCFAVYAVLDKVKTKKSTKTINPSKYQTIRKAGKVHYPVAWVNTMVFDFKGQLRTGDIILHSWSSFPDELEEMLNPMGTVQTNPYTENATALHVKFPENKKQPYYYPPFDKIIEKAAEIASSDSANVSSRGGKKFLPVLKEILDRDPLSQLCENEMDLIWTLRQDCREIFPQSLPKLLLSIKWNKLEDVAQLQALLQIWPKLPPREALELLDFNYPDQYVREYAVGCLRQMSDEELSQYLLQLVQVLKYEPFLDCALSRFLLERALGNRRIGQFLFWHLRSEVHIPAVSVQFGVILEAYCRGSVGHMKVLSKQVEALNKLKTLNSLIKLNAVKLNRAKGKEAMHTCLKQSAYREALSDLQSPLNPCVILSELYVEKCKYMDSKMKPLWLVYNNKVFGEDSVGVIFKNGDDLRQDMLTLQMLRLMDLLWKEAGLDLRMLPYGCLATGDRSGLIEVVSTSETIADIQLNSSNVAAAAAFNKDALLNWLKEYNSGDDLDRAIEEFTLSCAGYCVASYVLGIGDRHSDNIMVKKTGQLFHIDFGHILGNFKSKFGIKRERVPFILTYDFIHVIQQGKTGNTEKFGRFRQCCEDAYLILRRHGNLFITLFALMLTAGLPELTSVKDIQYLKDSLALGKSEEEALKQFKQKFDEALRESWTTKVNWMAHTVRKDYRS
Chain of PI3Kβ (P27986 whole entry partner): as the sequence (P27986 whole entry partner) above
Protocol: as §6
Assay [10] relates to AKT phosphorylation (Thr308, Ser473) in K562 cells. The assay is described as follows: Western Blot of PI3K/AKT signaling. It is filed as cell-based, human. Here is the method: as §3, §4
The subject of assay [11] is AKT phosphorylation (Thr308, Ser473) in RPMI-8226 cells. The assay is described as follows: Western Blot of PI3K/AKT signaling. The assay is classed as cell-based, human. On the procedure: as §3, §4
Assay [12] has as its system U937 cells. The assay is described as follows: MTT cell proliferation assay. The settings on record: 72 h, Fig. 3C, compared with IPI-145. The assay is classed as cell-based, human.
From the text: as §2
(§5) All cells were incubated in 96-well culture plates with 100 μL medium in each well. The concentration of solid cells (MDA-MB-231, MCF-7, Patu8988, HepG2, A2780, 3AO, LOVO, HCT-8, SW480, A549, H1299, and MGC-803) was 3,000/well and the concentration of suspension cells (HL-60, U266, OPM2, OCI-My5, RPMI-8226, NCI-H929, Jurkat, LP-1, CCRF-CEM, K562, and U937) was 7,500/well. […] The viability of the cancer cells was evaluated by Thiazolyl Blue (MTT) assay. 10 μL of 5 mg/mL MTT was added to each well and the plate was incubated at 37℃ for 4 h. Then, 100 μL MTT buffer was added to each well. After incubating the plate overnight, the absorbance of each well was measured at 550 nm by a microplate reader. All data were normalized to control groups (5 μL DMSO) and converted into the percent of living cells. All results were represented as the mean and standard deviation (SD) of the three independent measurements.

For assay [13], the system named is K562 cells. The assay is described as follows: MTT cell proliferation assay. The assay is classed as cell-based, human.
From the text: as §2, §5

The subject of assay [14] is RPMI-8226 cells. The assay can be described thus: MTT cell proliferation assay. The assay is classed as cell-based, human. As to conditions: 72 h, Fig. 3C, compared with IPI-145.
From the text: as §2, §5

Chain of PI3Kδ (O00329 whole entry): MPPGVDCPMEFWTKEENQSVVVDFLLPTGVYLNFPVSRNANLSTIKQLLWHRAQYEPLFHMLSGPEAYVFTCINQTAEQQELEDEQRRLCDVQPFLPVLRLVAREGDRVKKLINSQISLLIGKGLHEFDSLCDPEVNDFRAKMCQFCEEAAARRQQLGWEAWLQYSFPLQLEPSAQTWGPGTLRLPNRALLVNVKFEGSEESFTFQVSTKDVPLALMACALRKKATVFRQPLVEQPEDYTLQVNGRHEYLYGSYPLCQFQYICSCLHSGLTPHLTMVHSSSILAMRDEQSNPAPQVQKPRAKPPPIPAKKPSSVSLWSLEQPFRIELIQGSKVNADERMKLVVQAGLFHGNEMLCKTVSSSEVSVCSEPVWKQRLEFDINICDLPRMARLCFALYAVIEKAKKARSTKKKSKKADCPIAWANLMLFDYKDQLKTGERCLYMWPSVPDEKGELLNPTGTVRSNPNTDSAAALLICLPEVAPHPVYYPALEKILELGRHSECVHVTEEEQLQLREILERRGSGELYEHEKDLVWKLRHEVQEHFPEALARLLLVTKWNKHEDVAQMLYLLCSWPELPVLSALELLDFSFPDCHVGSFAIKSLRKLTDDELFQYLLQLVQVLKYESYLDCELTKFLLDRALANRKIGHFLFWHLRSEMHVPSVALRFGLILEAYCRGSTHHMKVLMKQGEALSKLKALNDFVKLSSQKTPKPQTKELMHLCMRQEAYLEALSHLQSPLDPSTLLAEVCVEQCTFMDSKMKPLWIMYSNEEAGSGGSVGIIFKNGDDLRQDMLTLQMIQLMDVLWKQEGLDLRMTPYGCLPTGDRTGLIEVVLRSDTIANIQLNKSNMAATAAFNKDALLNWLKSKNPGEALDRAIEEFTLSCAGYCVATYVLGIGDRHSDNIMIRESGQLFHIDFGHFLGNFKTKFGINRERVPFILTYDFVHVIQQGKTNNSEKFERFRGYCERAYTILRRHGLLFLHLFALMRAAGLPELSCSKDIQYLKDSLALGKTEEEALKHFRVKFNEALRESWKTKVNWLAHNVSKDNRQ
Chain of PI3Kδ (P27986 whole entry partner): as the sequence (P27986 whole entry partner) above
Chain of PI3Kγ (P48736 whole entry): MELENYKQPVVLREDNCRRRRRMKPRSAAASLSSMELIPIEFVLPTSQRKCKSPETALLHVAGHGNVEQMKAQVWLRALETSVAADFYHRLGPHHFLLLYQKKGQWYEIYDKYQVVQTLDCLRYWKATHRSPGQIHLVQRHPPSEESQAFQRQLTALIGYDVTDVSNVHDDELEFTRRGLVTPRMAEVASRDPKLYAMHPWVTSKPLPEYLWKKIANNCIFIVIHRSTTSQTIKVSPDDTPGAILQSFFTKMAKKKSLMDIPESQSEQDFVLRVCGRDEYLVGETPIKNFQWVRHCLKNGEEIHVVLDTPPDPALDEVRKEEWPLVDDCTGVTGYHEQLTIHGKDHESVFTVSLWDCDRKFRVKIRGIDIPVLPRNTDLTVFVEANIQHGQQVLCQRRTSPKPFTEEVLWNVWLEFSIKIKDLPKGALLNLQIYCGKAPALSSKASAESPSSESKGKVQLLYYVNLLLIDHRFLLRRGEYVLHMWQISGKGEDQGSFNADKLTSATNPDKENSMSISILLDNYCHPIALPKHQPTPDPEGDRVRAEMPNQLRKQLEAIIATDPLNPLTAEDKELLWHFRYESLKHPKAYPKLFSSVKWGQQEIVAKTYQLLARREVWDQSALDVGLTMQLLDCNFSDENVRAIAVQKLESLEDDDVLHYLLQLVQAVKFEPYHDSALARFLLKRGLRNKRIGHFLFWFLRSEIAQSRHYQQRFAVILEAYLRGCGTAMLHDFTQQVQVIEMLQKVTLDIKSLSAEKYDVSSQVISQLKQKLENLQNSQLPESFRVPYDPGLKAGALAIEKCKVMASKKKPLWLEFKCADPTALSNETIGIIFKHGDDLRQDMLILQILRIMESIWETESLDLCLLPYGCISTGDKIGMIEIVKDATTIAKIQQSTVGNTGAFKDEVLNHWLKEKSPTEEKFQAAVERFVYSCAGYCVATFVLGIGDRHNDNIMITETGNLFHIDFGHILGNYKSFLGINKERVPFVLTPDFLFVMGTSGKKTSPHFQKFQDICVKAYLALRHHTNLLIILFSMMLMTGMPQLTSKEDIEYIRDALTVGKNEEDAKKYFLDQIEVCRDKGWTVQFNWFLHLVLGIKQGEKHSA

`C[C@H](Nc1ncnc2nc[nH]c12)c1cc2cccc(Cl)c2c(=O)n1-c1ccccc1` [IPI-145]: the PI3Kγ inhibitory percent entry in assay [1] is given as “strongest inhibitory activity”.

On to `CC(=O)c1c(C)n(-c2ccc(C)cc2)c2ccc(OCC(O)CNCc3ccc(Cl)cc3)cc12` (centres unmarked) [JN-KI3], for which the cells occurring apoptosis is given as 41.2% in assay [2] (K562, 2.5 μM); 47.5% in assay [2] (K562, 5 μM); 65.7% in assay [2] (K562, 10 μM); “about 20.43%” in assay [3]. Besides, the concentration for half-maximal inhibition (IC50) in [4] (read-out: Cell-free inhibitory IC50 PI3Kα, ATP 25 μM, average of triple tests) was above 20 µM; in assay [4] (read-out: IC50 PI3Kα, Table 4), above 20 µM; in [6] (read-out: Cell-free inhibitory IC50 PI3Kδ, ATP 25 μM, average of triple tests), above 20 µM; in assay [6] (read-out: IC50 PI3Kδ, Table 4), above 20 µM; in [9] (read-out: Cell-free inhibitory IC50 PI3Kβ, ATP 25 μM, average of triple tests), above 20 µM; in [9] (read-out: IC50 PI3Kβ, Table 4), above 20 µM. Moreover, the “proliferation of hematologic tumor cell lines” value in [5] is “decreased in a concentration-dependent manner”. Also, the “cleavage level of Caspase-3 and PARP, time course” value in assay [7] (K562, 20 μM, after 6 h) is given as “significantly increased”; in [8] (RPMI-8226, 20 μM, after 6 h), “significantly increased”. For the same molecule, the “cleavage levels of PARP and caspase-3” value was “obviously increased” in [7] (K562, increasing concentrations, 24 h) and “obviously increased” in assay [8] (RPMI-8226, increasing concentrations, 24 h). Further, the “phosphorylation level of AKT at both sites, time course” value in assay [10] (K562, 20 μM, 0 to 24 h) is “significantly inhibited”; in assay [11] (RPMI-8226, 20 μM, 0 to 24 h) it was “significantly inhibited”. Further, the “t-AKT, time course” value in [10] (K562, 20 μM, 0 to 24 h) was “not markedly affected”; in assay [11] (RPMI-8226, 20 μM, 0 to 24 h) it was “not markedly affected”. Moreover, the “AKT phosphorylation at Thr308 and Ser473” value in assay [10] (K562, increasing concentration (2.5-20 μM), 24 h, inhibition even at 2.5 μM) was “markedly decreased”; in assay [11] (RPMI-8226, increasing concentration (2.5-20 μM), 24 h, inhibition even at 2.5 μM), “markedly decreased”. Moreover, the “expression of total AKT (t-AKT)” value in [10] (K562, increasing concentration, 24 h) is recorded as “not affected”; in assay [11] (RPMI-8226, increasing concentration, 24 h), “not affected”. Also, the “anti-proliferative activity, U937” value in assay [12] is on record as “stronger than IPI-145”. In addition, the “anti-proliferative activity, K562” value in [13] (72 h, MTT, Fig. 3B/3C) is given as “stronger than IPI-145”. The “sensitivity of K562 proliferation” value in assay [13] (gradient of concentrations, low concentration, Fig. 3D) is on record as “significant sensitivity”. Moreover, the “anti-proliferative activity, RPMI-8226” value in assay [14] was “stronger than IPI-145”.

Consider `O=c1cc(N2CCOCC2)oc2c(-c3ccccc3)cccc12` [LY294002, reference compound], for which the 50% inhibitory concentration (IC50) in assay [6] worked out at 0.78 µM.

These data come from PMC8800018, “Discovery of novel selective PI3Kγ inhibitors through combining machine learning-based virtual screening with multiple protein structures and bio-evaluation” (Journal of Advanced Research, 2021).
